# Measurements as given in US8981111B2 (priority 2008, dated 2015).
# Experiment: log P (HPLC/MS data of the preparation examples)
# Details: HPLC (LC-MS) method [b]: pH 2.7, 0.1% formic acid in water and acetonitrile, linear gradient 10% to 95% acetonitrile; EEC directive 79/831 Annex V.A8
row,SMILES,log p
1,CC(C)C(=O)Nc1cccc(CON=C(c2cccs2)c2nccn2C)n1 [Example 415],1.65^[b]
2,Cn1ncnc1C(=NOCc1cccc(N2C(=O)c3ccccc3C2=O)n1)c1cccs1 [Example 416],2.64^[b]
3,Cn1cncc1C(=NOCc1cccc(N2C(=O)c3ccccc3C2=O)n1)c1ccsc1 [Example 417],1.73^[b]
4,Cn1cncc1C(=NOCc1cccc(N2C(=O)c3ccccc3C2=O)n1)c1cccs1 [Example 420],1.66^[b]
5,Cn1cncc1C(=NOCc1csc(N)n1)c1cccs1 [Example 421],0.22^[b]
6,Cn1cncc1C(=NOCc1csc(N)n1)c1ccsc1 [Example 422],0.45^[b]
7,Cn1cncc1C(=NOCc1cccc(N)n1)c1cccs1 [Example 423],0.08^[b]
8,CCCCCOC(=O)Nc1cccc(CON=C(c2ccsc2)c2cncn2C)n1 [Example 425],2.82^[b]
9,CCCCCC(=O)Nc1nc(CON=C(c2ccsc2)c2cncn2C)cs1 [Example 428],1.99^[b]
10,CCCCCC(=O)Nc1nc(CON=C(c2cccs2)c2cncn2C)cs1 [Example 429],1.93^[b]
11,Cn1cncc1C(=NOCc1cccc(NC(=O)COc2ccccc2)n1)c1cccs1 [Example 431],1.94^[b]
12,CC(C)C(=O)Nc1nc(CON=C(c2cccs2)c2cncn2C)cs1 [Example 433],1.53^[b]
13,Cn1cncc1C(=NOCc1csc(NC(=O)COc2ccccc2)n1)c1cccs1 [Example 434],1.87^[b]
14,Cn1cncc1C(=NOCc1cccc(NC(=O)COc2ccccc2)n1)c1ccsc1 [Example 435],1.96^[b]
15,Cn1cncc1C(=NOCc1cccc(NC(=O)C(C)(C)C)n1)c1ccsc1 [Example 436],1.7^[b]
16,CCCC(=O)Nc1cccc(CON=C(c2ccsc2)c2cncn2C)n1 [Example 437],1.52^[b]
17,CCCCCCC(=O)Nc1cccc(CON=C(c2ccsc2)c2cncn2C)n1 [Example 438],2.25^[b]
18,CC(C)C(=O)Nc1cccc(CON=C(c2ccsc2)c2cncn2C)n1 [Example 439],1.5^[b]
19,CCCCC(=O)Nc1cccc(CON=C(c2ccsc2)c2cncn2C)n1 [Example 440],1.75^[b]

row,SMILES,log p
1,CCCCCCCCCC(=O)Nc1cccc(CON=C(c2ccsc2)c2cncn2C)n1 [Example 441],3.02^[b]
2,CC(C)CC(=O)Nc1cccc(CON=C(c2ccsc2)c2cncn2C)n1 [Example 442],1.7^[b]
3,Cn1cncc1C(=NOCc1cccc(NC(=O)C(C)(C)C)n1)c1cccs1 [Example 443],1.7^[b]
4,CCCC(=O)Nc1cccc(CON=C(c2cccs2)c2cncn2C)n1 [Example 445],1.5^[b]
5,CCCCCCCCCC(=O)Nc1cccc(CON=C(c2cccs2)c2cncn2C)n1 [Example 448],2.98^[b]
6,Cn1cncc1C(=NOCc1csc(NC(=O)C(C)(C)C)n1)c1cccs1 [Example 449],1.67^[b]
7,CC(C)CC(=O)Nc1nc(CON=C(c2cccs2)c2cncn2C)cs1 [Example 450],1.66^[b]
8,CCCC(=O)Nc1nc(CON=C(c2cccs2)c2cncn2C)cs1 [Example 451],1.47^[b]
9,CCCCCCC(=O)Nc1nc(CON=C(c2cccs2)c2cncn2C)cs1 [Example 452],2.14^[b]
10,CCCCC(=O)Nc1nc(CON=C(c2cccs2)c2cncn2C)cs1 [Example 453],1.7^[b]
11,CCCCCCCCCC(=O)Nc1nc(CON=C(c2cccs2)c2cncn2C)cs1 [Example 454],2.86^[b]
12,CCC(C(=O)Nc1cccc(CON=C(c2cccs2)c2cncn2C)n1)c1ccccc1 (centres unmarked) [Example 455],2.2^[b]
13,Cn1cccc1C(=NOCc1cccc(N2C(=O)c3ccccc3C2=O)n1)c1ccc(Cl)nc1 [Example 463],3.78^[b]
14,Cn1cccc1C(=NOCc1cccc(N)n1)c1ccc(Cl)nc1 [Example 464],1.72^[b]
15,Cn1ncnc1C(=NOCc1cccc(N2C(=O)c3ccccc3C2=O)n1)c1ncc(C(F)(F)F)cc1Cl [Example 465],3.15^[b]
16,Cn1ncnc1C(=NOCc1cccc(N)n1)c1ncc(C(F)(F)F)cc1Cl [Example 466],1.3^[b]
17,Cn1ncnc1C(=NOCc1cccc(NC(=O)Cc2ccccc2)n1)c1ncc(C(F)(F)F)cc1Cl [Example 467],3.46^[b]
18,CCCCCC(=O)Nc1cccc(CON=C(c2ncc(C(F)(F)F)cc2Cl)c2ncnn2C)n1 [Example 468],3.85^[b]
19,CCCCCOC(=O)Nc1cccc(CON=C(c2ncc(C(F)(F)F)cc2Cl)c2ncnn2C)n1 [Example 469],4.41^[b]

# Same assay, conditions: HPLC, method [a]: pH 2.3 with 0.1% phosphoric acid and acetonitrile as eluent
row,SMILES,log p
1,CC(C)CC(=O)Nc1cccc(CON=C(c2cccs2)c2ncnn2C)n1 [Example 396],2.78^[a];

# Same assay, conditions: LC-MS, method [b]: pH 2.7 with 0.1% formic acid in water and acetonitrile, linear gradient 10% to 95% acetonitrile
row,SMILES,log p
1,CCCCCOC(=O)Nc1nc(CON=C(c2ccc(OC)c(Br)c2)c2ncc(C(F)(F)F)cc2Cl)cs1 [Example 371],5.59^[b]
2,Cc1cnc(C)c(C(=NOCc2cccc(N3C(=O)c4ccccc4C3=O)n2)c2ccccc2)n1 [Example 372],3.35^[b]
3,Cc1cnc(C)c(C(=NOCc2cccc(N)n2)c2ccccc2)n1 [Example 373],1.31^[b]
4,CCCOC(=O)Nc1cccc(CON=C(c2ccccc2)c2nc(C)cnc2C)n1 [Example 374],3.81^[b]
5,CCCCCCOC(=O)Nc1cccc(CON=C(c2ccccc2)c2nc(C)cnc2C)n1 [Example 375],5.2^[b]
6,CCCCOC(=O)Nc1cccc(CON=C(c2ccccc2)c2nc(C)cnc2C)n1 [Example 376],4.29^[b]
7,CCCCCC(=O)Nc1cccc(CON=C(c2ccccc2)c2nc(C)cnc2C)n1 [Example 377],4.09^[b]
8,CCCCCOC(=O)Nc1cccc(CON=C(c2ccccc2)c2nc(C)cnc2C)n1 [Example 378],4.75^[b]
9,CCCCC(=O)Nc1cccc(CON=C(c2ccccc2)c2nc(C)cnc2C)n1 [Example 379],3.65^[b]
10,CCCCCCC(=O)Nc1cccc(CON=C(c2ccccc2)c2nc(C)cnc2C)n1 [Example 380],4.54^[b]
11,CCCC(=O)Nc1cccc(CON=C(c2ccccc2)c2nc(C)cnc2C)n1 [Example 381],3.21^[b]
12,Nc1ccnc(CON=C(c2ccsc2)c2snc(Cl)c2Cl)n1 [Example 382],1.86^[b]
13,Nc1nc(CON=C(c2ccsc2)c2snc(Cl)c2Cl)cs1 [Example 383],2.51^[b]
14,CC(C)(C)C(=O)Nc1ccnc(CON=C(c2ccsc2)c2snc(Cl)c2Cl)n1 [Example 384],4.67^[b]
15,Cn1ccnc1C(=NOCc1cccc(N2C(=O)c3ccccc3C2=O)n1)c1cccs1 [Example 385],1.78^[b]
16,CCCCCC(=O)Nc1ccnc(CON=C(c2cccs2)c2nccn2C)n1 [Example 388],1.93^[b]
17,CC(C)CC(=O)Nc1ccnc(CON=C(c2cccs2)c2nccn2C)n1 [Example 389],1.59^[b]
18,Cn1ccnc1C(=NOCc1nccc(NC(=O)C(C)(C)C)n1)c1cccs1 [Example 390],1.56^[b]
19,Cn1ncnc1C(=NOCc1cccc(N)n1)c1cccs1 [Example 391],0.82^[b]
20,Cn1ncnc1C(=NOCc1cccc(NC(=O)CCc2ccccc2)n1)c1cccs1 [Example 392],3.17^[b]
21,CCCCCC(=O)Nc1cccc(CON=C(c2cccs2)c2ncnn2C)n1 [Example 393],3.23^[b]

row,SMILES,log p
1,CCCCCOC(=O)Nc1cccc(CON=C(c2cccs2)c2ncnn2C)n1 [Example 394],3.82^[b]
2,Cn1ncnc1C(=NOCc1cccc(NC(=O)C(C)(C)C)n1)c1cccs1 [Example 395],2.82^[b]
3,CC(C)CC(=O)Nc1cccc(CON=C(c2cccs2)c2ncnn2C)n1 [Example 396],2.78^[b]
4,Cn1ncnc1C(=NOCc1nccc(N)n1)c1cccs1 [Example 397],0.47^[b]
5,Cn1ncnc1C(=NOCc1csc(N)n1)c1cccs1 [Example 398],0.92^[b]
6,CCCCCC(=O)Nc1nc(CON=C(c2cccs2)c2ncnn2C)cs1 [Example 399],3.23^[b]
7,CCCCCOC(=O)Nc1nc(CON=C(c2cccs2)c2ncnn2C)cs1 [Example 400],3.53^[b]
8,Cn1ncnc1C(=NOCc1csc(NC(=O)C(C)(C)C)n1)c1cccs1 [Example 401],2.8^[b]
9,Cn1ncnc1C(=NOCc1csc(NC(=O)Cc2ccccc2)n1)c1cccs1 [Example 402],2.82^[b]
10,Cn1ncnc1C(=NOCc1csc(NC(=O)CCc2ccccc2)n1)c1cccs1 [Example 403],3.09^[b]
11,CC(C)CC(=O)Nc1nc(CON=C(c2cccs2)c2ncnn2C)cs1 [Example 404],2.73^[b]
12,CCCCCC(=O)Nc1ccnc(CON=C(c2cccs2)c2ncnn2C)n1 [Example 405],3^[b]
13,CCCCCOC(=O)Nc1ccnc(CON=C(c2cccs2)c2ncnn2C)n1 [Example 406],3.31^[b]
14,Cn1ncnc1C(=NOCc1nccc(NC(=O)C(C)(C)C)n1)c1cccs1 [Example 407],2.59^[b]
15,Cn1ncnc1C(=NOCc1nccc(NC(=O)Cc2ccccc2)n1)c1cccs1 [Example 408],2.64^[b]
16,Cn1ncnc1C(=NOCc1nccc(NC(=O)CCc2ccccc2)n1)c1cccs1 [Example 409],2.9^[b]
17,CC(C)CC(=O)Nc1ccnc(CON=C(c2cccs2)c2ncnn2C)n1 [Example 410],2.56^[b]
18,CCCCCOC(=O)Nc1cccc(CON=C(c2cccs2)c2nccn2C)n1 [Example 411],2.71^[b]
19,CC(C)CC(=O)Nc1cccc(CON=C(c2cccs2)c2nccn2C)n1 [Example 412],1.91^[b]
20,Cn1ccnc1C(=NOCc1cccc(NC(=O)C(C)(C)C)n1)c1cccs1 [Example 413],1.78^[b]
21,Cn1ccnc1C(=NOCc1cccc(NC(=O)Cc2ccccc2)n1)c1cccs1 [Example 414],2.05^[b]

# Same assay, conditions: LC-MS, method [c]: pH 7.8 with 0.001 molar ammonium hydrogen carbonate solution in water, linear gradient 10% to 95% acetonitrile
row,SMILES,log p
1,Cn1ccnc1C(=NOCc1nccc(N)n1)c1cccs1 [Example 386],1.13^[c]
2,Cn1ccnc1C(=NOCc1cccc(N)n1)c1cccs1 [Example 387],1.74^[c]
